Test results as given in patent US20120277265A1, “NOVEL POLYQUINOLINE DERIVATIVES AND THE THERAPEUTIC USE THEREOF” (CENTRE NATIONAL DE LA RECHERCHE SCIENTIFIQUE (C.N.R.S.), priority 2005, published 2012).
Like-named read-outs stand apart in the source and are kept apart here.

Columns and labels:
[1] = UV-visible spectrophotometric titration with CuCl2 (metal/ligand stoichiometry); format: binding; settings: 15 μM ligand; Tris-HCl buffer pH 7.4/organic solvent, per ligand as in Table 3 column Solvent
Description: (§1) An organic solvent (CH3OH, dioxane or DMSO) was added in order to achieve good solubility of the ligands and metal complexes in the concentrations used in these experiments. Exact proportions of the organic solvent/buffer mixture are specified for each UV-visible characterisation of the different ligands or metal complexes.
(§2) Aliquot portions of concentrated CuCl2 or ZnCl2 solutions (M) are added to a 15 μM ligand solution so as to induce only negligible variations in volume. After each addition, changes in absorption spectra are observed immediately and are consistent between two additions, which corresponds to a rapid complexing process. The exact absorption values relating to each ligand and the copper(II) or zinc(II) complexes thereof are detailed hereinafter in the Experimental part (in the Synthesis part for ligands and hereinafter for the metal complexes).
(§3) The stoichiometry of the different ligands (L) for Cu(II) or ZN(II) have therefore been determined spectrophotometrically by metal ion titration. In this example, for an M/L ratio increasing from 0 to 1, π→π* with transition, centred at 251 nm for the free ligand, is shifted to a lower energy with a concomitant appearance of an absorption band in the visible region of the spectrum (λmax to 383 nm), which is probably the result of an MLCT transition. For greater M/L ratios, no additional change in the UV-visible absorption spectra is observed.

[2] = UV-visible spectrophotometric titration with ZnCl2 (metal/ligand stoichiometry); format: binding; settings: 15 μM ligand; Tris-HCl buffer pH 7.4/organic solvent, per ligand as in Table 3 column Solvent
Description: as §1, §2, §3

[3] = Competition reaction between ligand (Ls), ZnCl2 and competing chelator (Lc), UV-visible; affinity constants; format: binding; settings: for % MLs: Zn(II), EDTA as Lc, 1/1/1 at 15 μM
Description: An organic solvent (CH3OH, dioxane or DMSO) was added in order to achieve good solubility of all the ligands and metal complexes in the concentrations used in these experiments.
As the concentration [MLs]=x % of C is measured on the UV-visible spectra, the concentrations [Ls]=(1−x) % of C, [MLc]=(1−x) % of C and [Lc]=x % of C can be deduced therefrom and:
In these conditions, [MLs]=[MLc]; [MLs]+[Lc]=Y, y≧50 and:
When log Ks 6, these equations are not used since the percentages of metal ion which is free in the solution or chelated by the solvent or the buffer are not negligible.

[4] = Competition reaction between ligand (Ls), CuCl2 and competing chelator (Lc), UV-visible; affinity constants; settings: for number of Lc equivalents making it possible to form 50% of CuLs, Lc = EDTA: mixture of Ls (15 μM, 1 equivalent) and CuCl2 (1/1, mol/mol); for % MLs: Cu(II), EDTA as Lc, 1/1/1 at 15 μM
Description: An organic solvent (CH3OH, dioxane or DMSO) was added in order to achieve good solubility of all the ligands and metal complexes in the concentrations used in these experiments. Monitoring has shown that all the ligands and metal complexes examined yield results corresponding to the Beer-Lambert Law in the experimental conditions used.
Lc competing chelators were selected to provide a range of stability constants for the metal ion M presenting intervals of approximately one or two log units, as well as to make it possible for each competition experiment to quantify one of the Ls, MLs, Lcc or MLc species with a UV-vis spectrum wavelength without contaminating the three other species (FIG. 7). […] As the concentration [MLs]=x % of C is measured on the UV-visible spectra, the concentrations [Ls]=(1−x) % of C, [MLc]=(1−x) % of C and [Lc]=x % of C can be deduced therefrom and:

[5] = system: Salmonella tiphimurium TA98; experiment: AMES test, TA98
Text: (§4) AMES test: The method is adapted from D. M. Maron and B. N. Ames, Mutat.
(§5) The test involves evaluating the potential of the tested molecules to induce mutation which is reverse to the histidine locus of these lines. These two lines were provided by Dr. Bruce N. Ames (University of California, Berkeley, USA). They are resistant to Ampicillin and sensitive to Tetracycline. They are not mutant toward rfa, UvγV and UvγA. The line TA98 (his D3052) contains a mutation of reading phase (GC) whereas the line TA100 (his G46) contains a substitution of base pair (GC).
(§6) The compounds to be tested were dissolved in 100% of DMSO (the solvent) and diluted logarithmically (by a factor of 10) so as to obtain 4 test concentrations of 30,000; 3,000; 300 and 30 μg/ml. Each series of 0.1 ml of stock solution to be tested, 0.1 ml of test line and of culture medium with or without 0.5 ml of enzymatic homogenate (S9) of rat liver microsome were mixed with 2 ml of molten agarose (containing 0.5 mM of histidine and 0.5 mM of biotin). This mixture was placed on the surface of a plate of minimal agarose glucose medium (30 ml for each Petri dish) so as to obtain final concentrations of compound to be tested of 3,000; 300; 30 and 3 μγ/plate. The plates were then incubated at 37° C. for 48 hours. […] The revertant colonies of the test lines were counted using a colony counter (Sigma). […] A compound inducing a number of colonies <50% of cells obtained for the solvent alone was deemed to be toxic for the bacteria tested. All the experiments were carried out in triplicate.

[6] = system: Salmonella tiphimurium TA100; experiment: AMES test, TA100
Text: as §4, §5, §6

[7] = Ls/ZnCl2/Lc 1/1/1 at 15 μM, solvent per ligand as in Table 3
[8] = Ls/CuCl2/Lc 1/1/1 at 15 μM, solvent per ligand as in Table 3
[9] = value per plate, Addition of S9: no
[10] = value per plate, Addition of S9: yes

| SMILES | Complex observed by titration with Cu^II (observed L/Cu(II) stoichiometry) [1] | Complex observed by titration with Zn^II (observed L/Zn(II) stoichiometry) [2] | percentage of ZnLs species at equilibrium, competing ligand EDTA [3, 7] | percentage of the CuLs species at equilibrium, competing ligand EDDA [4, 8] | percentage of the CuLs species at equilibrium, competing ligand EDTA [4, 8] | percentage of the CuLs species at equilibrium, competing ligand HIDA [4, 8] | number of Lc equivalents making it possible to form 50% of CuLs, Lc = EDTA [4] | TA98 Cytotoxicity [5, 9] | TA98 Mutagenic effect [5, 9] | TA98 Cytotoxicity [5, 10] | TA98 Mutagenic effect [5, 10] | TA100 Cytotoxicity [6, 9] | TA100 Cytotoxicity [6, 10] | TA100 Mutagenic effect [6, 10] | further results |
| --- | --- | --- | --- | --- | --- | --- | --- | --- | --- | --- | --- | --- | --- | --- | --- |
| CC(C)(c1ccc2c(Cl)ccc(O)c2n1)c1ccc2c(Cl)ccc(O)c2n1 [Compound 4, 2,2′-(2,2-Propanediyl)-bis(5-chloro-8-hydroxyquinoline)] | Cu^II(1/1) | LZn^II(1/1) | 20% | 90% | 40% | 100% | 0.65 eq | – | – | – | – | – | – | – | – |
| CC(C)(c1ccc2cccc(O)c2n1)c1ccc2cccc(O)c2n1 [Compound 3, 2,2′-(2,2-propanediyl)-bis(8-hydroxyquinoline)] | – | LZn^II(1/1) | 30% | 100% | 50% | 100% | 1 eq | >3000 µg | >3000 µg | >3000 µg | >3000 µg | >3000 µg | >3000 µg | >3000 µg | TA100 Mutagenic effect [6, 9]: >3000 µg; percentage of ZnLs species at equilibrium, competing ligand DTPA [3, 7]: 20%; percentage of ZnLs species at equilibrium, competing ligand EGTA [3, 7]: 100%; percentage of ZnLs species at equilibrium, competing ligand NTA [3, 7]: 100%; percentage of ZnLs species at equilibrium, competing ligand Trien [3, 7]: 100%; % MLs ([3]; Buffer/CH3OH (1/1)): 30%; % MLs ([3]; Buffer/DMSO (2/8)): 35%; % MLs ([3]; Buffer/dioxane (2/8)): 33%; % MLs ([3]; CH3OH): 40%; number of Lc equivalents making it possible to form 50% of ZnLs, Lc = EDTA ([3]; mixture of Ls (15 μM, 1 equivalent) and ZnCl2 (1/1, mol/mol)): 0.7 eq; % MLs ([4]; Buffer/CH3OH (1/1)): 50%; % MLs ([4]; Buffer/DMSO (2/8)): 55%; % MLs ([4]; Buffer/dioxane (1/1)): 45%; percentage of the CuLs species at equilibrium, competing ligand CTDA [4, 8]: 15%; percentage of the CuLs species at equilibrium, competing ligand EDA [4, 8]: 100%; percentage of the CuLs species at equilibrium, competing ligand Tetren [4, 8]: 0%; percentage of the CuLs species at equilibrium, competing ligand Trien [4, 8]: 30%; percentage of the CuLs species at equilibrium, competing ligand biPy [4, 8]: 100% |
| O=C(c1ccc2cccc(O)c2n1)c1ccc2cccc(O)c2n1 [Compound 6, Bis(8-hydroxy-2-quinoline)methanone] | LCu^II(1/1) | LZn^II(1/1) | 75% | – | 75% | – | – | – | – | – | – | – | – | – | – |
| c1cnc2c(Nc3cccc4cccnc34)cccc2c1 [Compound 12, Bis(8-quinoline)amine] | LCu^II(1/1) | LZn^II(1/1) | – | – | 55% | – | – | >3000 µg | – | >3000 µg | – | >3000 µg | >3000 µg | – | TA98 Mutagenic effect [5]: >3000 µg; TA100 Mutagenic effect [6]: >3000 µg; Log KZn^II ([3]; affinity constant at pH = 7.4, solvent per ligand as in Table 3 column Solvent, Equation 8 (a) or 7 (b)): ≈6 |
| Oc1cccc2ccc(C(F)(F)c3ccc4cccc(O)c4n3)nc12 [Compound 5, 2,2′-(Difluoromethanediyl)-bis(8-hydroxyquinoline)] | LCu^II(1/1) | LZn^II(1/1) | 55% | – | 45% | – | – | >3000 µg | >3000 µg | >3000 µg | >3000 µg | 300 µg | >3000 µg | >3000 µg | bactericidal effect ([6]; TA100 line in the absence of S9): ≥ 300 μg/plate |
